Data as given in patent US11306078B2, “Piperidine CXCR7 receptor modulators” (IDORSIA PHARMACEUTICALS LTD., priority 2016, dated 2022).

Molecular target: human chemokine receptor CXCR7 (Homo sapiens (Human), UniProt P25106)
Assay: Tango CXCR7-bla U2OS beta-arrestin recruitment assay (beta-lactamase reporter, FRET), antagonism of CXCL12/SDF1-α;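 also: compounds preincubated 15 min before CXCL12 addition, then 22 h at 37 °C, FRET emission ratio read with CCF4-AM substrate after 2 h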
Type: cell-based
Settings: antagonistic effect on CXCR7; Tango CXCR7-bla U2OS cells, CXCL12/SDF1-α at its EC80

human chemokine receptor CXCR7, sequence (P25106 whole entry): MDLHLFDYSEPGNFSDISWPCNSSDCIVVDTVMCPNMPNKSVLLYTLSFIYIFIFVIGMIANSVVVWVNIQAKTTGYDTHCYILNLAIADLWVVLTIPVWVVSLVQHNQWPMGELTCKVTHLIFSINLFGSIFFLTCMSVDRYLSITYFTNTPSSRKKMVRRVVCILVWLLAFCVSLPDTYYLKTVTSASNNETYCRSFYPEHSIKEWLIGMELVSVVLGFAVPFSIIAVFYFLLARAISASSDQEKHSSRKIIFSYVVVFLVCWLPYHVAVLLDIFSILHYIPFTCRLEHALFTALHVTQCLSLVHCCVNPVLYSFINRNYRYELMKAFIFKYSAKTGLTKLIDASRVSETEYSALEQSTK

IC50 [µM] | Structure (SMILES)
0.446 | O=C(N[C@@H]1CCN(CC2CC2)C[C@H]1C(=O)NC1(c2ccccn2)CC1)c1cc(-c2c(F)cc(F)cc2F)on1 (single isomer, unassigned) [Example 1.171b, (3R*,4R*)-1-Cyclopropylmethyl-4-{[5-(2,4,6-trifluoro-phenyl)-isoxazole-3-carbonyl]-amino}-piperidine-3-carboxylic acid (1-pyridin-2-yl-cyclopropyl)-amide]
0.003 | Cc1cccc([C@@H](C)NC(=O)[C@@H]2CN(C3CCCCC3)CC[C@H]2NC(=O)c2cc(-c3ccc(F)cc3F)on2)n1 (single isomer, unassigned) [Example 1.188a, (3R*,4R*)-1-Cyclohexyl-4-{[5-(2,4-difluoro-phenyl)-isoxazole-3-carbonyl]-amino}-piperidine-3-carboxylic acid [(R)-1-(6-methyl-pyridin-2-yl)-ethyl]-amide]
0.519 | Cc1cccc([C@@H](C)NC(=O)[C@@H]2CN(C3CCCCC3)CC[C@H]2NC(=O)c2cc(-c3ccc(F)cc3F)on2)n1 (single isomer, unassigned) [Example 1.188b, (3R*,4R*)-1-Cyclohexyl-4-{[5-(2,4-difluoro-phenyl)-isoxazole-3-carbonyl]-amino}-piperidine-3-carboxylic acid [(R)-1-(6-methyl-pyridin-2-yl)-ethyl]-amide]
0.179 | Cc1cccc([C@H](C)NC(=O)[C@@H]2CN(C3CCCCC3)CC[C@H]2NC(=O)c2cc(-c3ccc(F)cc3F)on2)n1 (single isomer, unassigned) [Example 1.188c, (3R*,4R*)-1-Cyclohexyl-4-{[5-(2,4-difluoro-phenyl)-isoxazole-3-carbonyl]-amino}-piperidine-3-carboxylic acid [(S)-1-(6-methyl-pyridin-2-yl)-ethyl]-amide]
0.854 | O=C(N[C@@H]1CCN(CC2CC2)C[C@H]1C(=O)NC1(c2ncccn2)CC1)c1cc(-c2ccc(C(F)(F)F)cc2)on1 (single isomer, unassigned) [Example 1.192a, (3R*,4R*)-1-Cyclopropylmethyl-4-{[5-(4-trifluoromethyl-phenyl)-isoxazole-3-carbonyl]-amino}-piperidine-3-carboxylic acid (1-pyrimidin-2-yl-cyclopropyl)-amide]
0.122 | O=C(N[C@@H]1CCN(CC2CC2)C[C@H]1C(=O)NC1(c2ncccn2)CC1)c1cc(-c2ccc(C(F)(F)F)cc2)on1 (single isomer, unassigned) [Example 1.192b, (3R*,4R*)-1-Cyclopropylmethyl-4-{[5-(4-trifluoromethyl-phenyl)-isoxazole-3-carbonyl]-amino}-piperidine-3-carboxylic acid (1-pyrimidin-2-yl-cyclopropyl)-amide]
0.271 | O=C(N[C@@H]1CCN(CC2CC2)C[C@H]1C(=O)NC1(c2ncccn2)CC1)c1cc(-c2c(F)cc(F)cc2F)on1 (single isomer, unassigned) [Example 3.020a, (3R*,4R*)-1-Cyclopropylmethyl-4-{[5-(2,4,6-trifluoro-phenyl)-isoxazole-3-carbonyl]-amino}-piperidine-3-carboxylic acid (1-pyrimidin-2-yl-cyclopropyl)-amide]
0.008 | COc1ccccc1C(C)NC(=O)[C@H]1CN(CC2CC2)CC[C@@H]1NC(=O)c1cc(-c2ccc(F)cc2F)on1 (single isomer, unassigned) [Example 4.072a]
0.004 | O=C(N[C@@H]1CCN(CC2CC2)C[C@H]1C(=O)NC1(c2ncccn2)CC1)c1cc(-c2c(F)cc(F)cc2F)on1 (single isomer, unassigned) [Example 30.20b, (3R*,4R*)-1-Cyclopropylmethyl-4-{[5-(2,4,6-trifluoro-phenyl)-isoxazole-3-carbonyl]-amino}-piperidine-3-carboxylic acid (1-pyrimidin-2-yl-cyclopropyl)-amide]

The next lines start with the compound.

Structure (SMILES) | IC50 [µM]
O=C(N[C@H]1CCN(C2CCCC2)C[C@@H]1C(=O)NC1(c2ncccn2)CC1)c1cc(-c2c(F)cc(F)cc2F)on1 (single isomer, unassigned) [Example 1.176a, (3S,4S)-1-Cyclopentyl-4-{[5-(2,4,6-trifluoro-phenyl)-isoxazole-3-carbonyl]-amino}-piperidine-3-carboxylic acid (1-pyrimidin-2-yl-cyclopropyl)-amide or (3R,4R)-1-Cyclopentyl-4-{[5-(2,4,6-trifluoro-phenyl)-isoxazole-3-carbonyl]-amino}-piperidine-3-carboxylic acid (1-pyrimidin-2-yl-cyclopropyl)-amide] | 0.005
Cc1cccc([C@H](C)NC(=O)[C@@H]2CN(C3CCCCC3)CC[C@H]2NC(=O)c2cc(-c3ccc(F)cc3F)on2)n1 (single isomer, unassigned) [Example 1.188.d, (3R*,4R*)-1-Cyclohexyl-4-{[5-(2,4-difluoro-phenyl)-isoxazole-3-carbonyl]-amino}-piperidine-3-carboxylic acid [(S)-1-(6-methyl-pyridin-2-yl)-ethyl]-amide] | 0.362
O=C(N[C@H]1CCN(CC2CC2)C[C@@H]1C(=O)NC1(c2ncccn2)CC1)c1cc(-c2ccc(Cl)cc2Cl)on1 (single isomer, unassigned) [Example 1.189a, (3S,4S)-1-Cyclopropylmethyl-4-{[5-(2,4-dichloro-phenyl)-isoxazole-3-carbonyl]-amino}-piperidine-3-carboxylic acid (1-pyrimidin-2-yl-cyclopropyl)-amide or (3R,4R)-1-Cyclopropylmethyl-4-{[5-(2,4-dichloro-phenyl)-isoxazole-3-carbonyl]-amino}-piperidine-3-carboxylic acid (1-pyrimidin-2-yl-cyclopropyl)-amide] | 0.015
O=C(N[C@@H]1CCN(CC2CC2)C[C@H]1C(=O)NC1(c2ncccn2)CC1)c1cc(-c2cccc(C(F)(F)F)c2)on1 (single isomer, unassigned) [Example 1.193a, (3R,4R)-1-Cyclopropylmethyl-4-{[5-(3-trifluoromethyl-phenyl)-isoxazole-3-carbonyl]-amino}-piperidine-3-carboxylic acid (1-pyrimidin-2-yl-cyclopropyl)-amide or (3S,4S)-1-cyclopropylmethyl-4-{[5-(3-trifluoromethyl-phenyl)-isoxazole-3-carbonyl]-amino}-piperidine-3-carboxylic acid (1-pyrimidin-2-yl-cyclopropyl)-amide] | 0.097
O=C(N[C@@H]1CCN(CC2CC2)C[C@H]1C(=O)NC1(c2ncccn2)CC1)c1cc(-c2ccc(F)c(F)c2F)on1 (single isomer, unassigned) [Example 1.194a, (3R,4R)-1-Cyclopropylmethyl-4-{[5-(2,3,4-trifluoro-phenyl)-isoxazole-3-carbonyl]-amino}-piperidine-3-carboxylic acid (1-pyrimidin-2-yl-cyclopropyl)-amide or (3S,4S)-1-cyclopropylmethyl-4-{[5-(2,3,4-trifluoro-phenyl)-isoxazole-3-carbonyl]-amino}-piperidine-3-carboxylic acid (1-pyrimidin-2-yl-cyclopropyl)-amide] | 0.013
CN(C)C(=O)[C@@H]1CN(C2CCCCC2)CC[C@H]1NC(=O)c1nnc(-c2ccc(F)cc2F)o1 (single isomer, unassigned) [Example 3.003a, (3R*,4R*)-1-Cyclohexyl-4-{[5-(2,4-difluoro-phenyl)-[1,3,4]oxadiazole-2-carbonyl]-amino}-piperidine-3-carboxylic acid dimethylamide] | 0.771
CN(C)C(=O)[C@@H]1CN(C2CCCCC2)CC[C@H]1NC(=O)c1nnc(-c2ccc(F)cc2F)o1 (single isomer, unassigned) [Example 3.003b, (3R*,4R*)-1-Cyclohexyl-4-{[5-(2,4-difluoro-phenyl)-[1,3,4]oxadiazole-2-carbonyl]-amino}-piperidine-3-carboxylic acid dimethylamide] | 0.054
O=C(N[C@H]1CCN(CC2CC2)C[C@@H]1C(=O)NC1(c2ccccn2)CC1)c1nnc(-c2ccc(F)cc2F)o1 (single isomer, unassigned) [Example 3.016a, (3S,4S)-1-Cyclopropylmethyl-4-{[5-(2,4-difluoro-phenyl)-[1,3,4]oxadiazole-2-carbonyl]-amino}-piperidine-3-carboxylic acid (1-pyridin-2-yl-cyclopropyl)-amide or (3R,4R)-1-Cyclopropylmethyl-4-{[5-(2,4-difluoro-phenyl)-[1,3,4]oxadiazole-2-carbonyl]-amino}-piperidine-3-carboxylic acid (1-pyridin-2-yl-cyclopropyl)-amide] | 0.09
O=C(N[C@@H]1CCN(CC2CC2)C[C@H]1C(=O)NC1(c2ncccn2)CC1)c1noc(-c2ccc(F)cc2F)c1F (single isomer, unassigned) [Example 3.022a, (3R,4R)-1-Cyclopropylmethyl-4-{[5-(2,4-difluoro-phenyl)-4-fluoro-isoxazole-3-carbonyl]-amino}-piperidine-3-carboxylic acid (1-pyrimidin-2-yl-cyclopropyl)-amide or (3S,4S)-1-cyclopropylmethyl-4-{[5-(2,4-difluoro-phenyl)-4-fluoro-isoxazole-3-carbonyl]-amino}-piperidine-3-carboxylic acid (1-pyrimidin-2-yl-cyclopropyl)-amide] | 0.025

Same assay, conditions: antagonistic effect on CXCR7; Tango CXCR7-bla U2OS cells; CXCL12/SDF1-α at its EC80; geometric mean

Structure (SMILES) | IC50 [µM]
O=C(N[C@@H]1CCN(CC2CC2)C[C@H]1C(=O)NC1(c2ncccn2)CC1)c1cc(C2CC2)on1 (single isomer, unassigned) [Reference Compound 1a, (3R,4R)-4-[(5-Cyclopropyl-isoxazole-3-carbonyl)-amino]-1-cyclopropylmethyl-piperidine-3-carboxylic acid (1-pyrimidin-2-yl-cyclopropyl)-amide or (3S,4S)-4-[(5-cyclopropyl-isoxazole-3-carbonyl)-amino]-1-cyclopropylmethyl-piperidine-3-carboxylic Acid (1-pyrimidin-2-yl-cyclopropyl)-amide, reference compound] | > 10
